pIC50: −log10 of the molar value. Where a name gives a salt, the structure may show the parent alone.
Target: T1, human recombinant HPK1 (Homo sapiens, UniProt Q92918)
T1 construct: purchased BPS Bioscience
Assay: Inhibitory activity against human recombinant HPK1 (TR-FRET)
Assay type: biochemical
Settings: ULight-p70S6K peptide, ATP at Km, room temperature, 1 hour, 0.32 to 1000 nM compound
Outline: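 IC50 classes A–D use 10, 50 and 100 nM cut-offs, derived from TR-FRET signal inhibition relative to DMSO controls. Human recombinant HPK1 phosphorylated ULight-p70S6K peptide at Km ATP for 1 h, room temperature, pH 7.4; test range 0.32–1000 nM final, detection with Eu-labelled antibody after EDTA quench.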

T1 sequence (Q92918 whole entry): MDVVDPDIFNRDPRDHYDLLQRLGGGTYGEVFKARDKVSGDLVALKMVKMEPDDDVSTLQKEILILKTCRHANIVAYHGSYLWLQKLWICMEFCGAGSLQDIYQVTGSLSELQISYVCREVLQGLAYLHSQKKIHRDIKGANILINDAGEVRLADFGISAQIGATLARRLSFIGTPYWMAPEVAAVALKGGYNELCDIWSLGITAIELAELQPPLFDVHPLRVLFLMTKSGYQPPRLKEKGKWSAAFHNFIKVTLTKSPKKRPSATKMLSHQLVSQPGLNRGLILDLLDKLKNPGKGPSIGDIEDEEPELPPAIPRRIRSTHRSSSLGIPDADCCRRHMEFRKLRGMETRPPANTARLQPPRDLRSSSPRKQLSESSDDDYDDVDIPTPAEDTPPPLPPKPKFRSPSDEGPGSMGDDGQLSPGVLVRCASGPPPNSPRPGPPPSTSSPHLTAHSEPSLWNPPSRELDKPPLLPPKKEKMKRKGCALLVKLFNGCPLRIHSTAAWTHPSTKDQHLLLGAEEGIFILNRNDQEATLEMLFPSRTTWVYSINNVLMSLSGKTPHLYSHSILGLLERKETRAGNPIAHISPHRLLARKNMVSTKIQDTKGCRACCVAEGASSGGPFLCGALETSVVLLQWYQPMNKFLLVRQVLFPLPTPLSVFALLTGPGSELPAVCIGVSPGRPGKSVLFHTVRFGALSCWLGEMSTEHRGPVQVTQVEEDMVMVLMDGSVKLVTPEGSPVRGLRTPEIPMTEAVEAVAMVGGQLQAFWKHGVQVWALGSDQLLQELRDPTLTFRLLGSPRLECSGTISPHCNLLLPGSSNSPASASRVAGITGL

Row | Structure (SMILES) | pIC50
1 | COc1cc(CO)cc(F)c1-c1nccc(Nc2cc(N3CCC[C@H](N)C3)c(-c3cnn(C(F)F)c3)cn2)n1 [Example 101, (S)-(4-(4-((4-(3-aminopiperidin-1-yl)-5-(1-(difluoromethyl)-1H-pyrazol-4-yl)pyridin-2-yl)amino)pyrimidin-2-yl)-3-fluoro-5-methoxyphenyl)methanol hydrochloride] | ≥ 8.00
2 | COc1cc(CO)cc(F)c1-c1nccc(Nc2cc(N3CCC[C@H](N)C3)c(-c3cnn(CC(F)(F)F)c3)cn2)n1 [Example 102, (S)-(4-(4-((4-(3-aminopiperidin-1-yl)-5-(1-(2,2,2-trifluoroethyl)-1H-pyrazol-4-yl)pyridin-2-yl)amino)pyrimidin-2-yl)-3-fluoro-5-methoxyphenyl)methanol hydrochloride] | ≥ 8.00
3 | COc1cc(CO)cc(F)c1-c1nccc(Nc2cc(N3CCC[C@H](N)C3)c(C#CC3CCOCC3)cn2)n1 [Example 103, (S)-(4-(4-((4-(3-aminopiperidin-1-yl)-5-((tetrahydro-2H-pyran-4-yl)ethynyl)pyridin-2-yl)amino)pyrimidin-2-yl)-3-fluoro-5-methoxyphenyl)methanol hydrochloride] | ≥ 8.00
4 | COc1cc(CN(C)C)cc(F)c1-c1nccc(Nc2cc(N3CCC[C@H](N)C3)c(-c3cnn(C(F)F)c3)cn2)n1 [Example 104, (S)-N-(4-(3-aminopiperidin-1-yl)-5-(1-(difluoromethyl)-1H-pyrazol-4-yl)pyridin-2-yl)-2-(4-((dimethylamino)methyl)-2-fluoro-6-methoxyphenyl)pyrimidin-4-amine hydrochloride] | ≥ 8.00
5 | COc1cc(CN(C)C)cc(F)c1-c1nccc(Nc2cc(N3CCC[C@H](N)C3)c(-c3cnn(CC(F)(F)F)c3)cn2)n1 [Example 105, (S)-N-(4-(3-aminopiperidin-1-yl)-5-(1-(2,2,2-trifluoroethyl)-1H-pyrazol-4-yl)pyridin-2-yl)-2-(4-((dimethylamino)methyl)-2-fluoro-6-methoxyphenyl)pyrimidin-4-amine hydrochloride] | ≥ 8.00
6 | COc1cc(CN(C)C)cc(F)c1-c1nccc(Nc2cc(N3CCC[C@H](N)C3)c(C#CC3CCOCC3)cn2)n1 [Example 106, (S)-N-(4-(3-aminopiperidin-1-yl)-5-((tetrahydro-2H-pyran-4-yl)ethynyl)pyridin-2-yl)-2-(4-((dimethylamino)methyl)-2-fluoro-6-methoxyphenyl)pyrimidin-4-amine hydrochloride] | ≥ 8.00
7 | COc1cccc(F)c1-c1nccc(Nc2cc(N3CCC[C@H](N)C3)c(-c3cnn(C(F)(F)F)c3)cn2)n1 [Example 107, (S)-N-(4-(3-aminopiperidin-1-yl)-5-(1-(trifluoromethyl)-1H-pyrazol-4-yl)pyridin-2-yl)-2-(2-fluoro-6-methoxyphenyl)pyrimidin-4-amine hydrochloride] | ≥ 8.00
8 | COc1cc(F)cc(F)c1-c1nccc(Nc2cc(N3CCC[C@H](N)C3)c(-c3cnn(C(F)F)c3)cn2)n1 [Example 108, (S)-N-(4-(3-aminopiperidin-1-yl)-5-(1-(difluoromethyl)-1H-pyrazol-4-yl)pyridin-2-yl)-2-(2,4-difluoro-6-methoxyphenyl)pyrimidin-4-amine hydrochloride] | ≥ 8.00
9 | COc1cc(F)cc(F)c1-c1nccc(Nc2cc(N3CCC[C@H](N)C3)c(-c3cnn(CC(F)(F)F)c3)cn2)n1 [Example 109, (S)-N-(4-(3-aminopiperidin-1-yl)-5-(1-(2,2,2-trifluoroethyl)-1H-pyrazol-4-yl)pyridin-2-yl)-2-(2,4-difluoro-6-methoxyphenyl)pyrimidin-4-amine] | ≥ 8.00
10 | COc1cc(F)cc(F)c1-c1nccc(Nc2cc(N3CCC[C@H](N)C3)c(C#CC3CCOCC3)cn2)n1 [Example 110, (S)-N-(4-(3-aminopiperidin-1-yl)-5-((tetrahydro-2H-pyran-4-yl)ethynyl)pyridin-2-yl)-2-(2,4-difluoro-6-methoxyphenyl)pyrimidin-4-amine] | ≥ 8.00
11 | COc1cccc(F)c1-c1nccc(Nc2cc(N3CCC[C@H](N)C3)c(C#Cc3cnn(C(F)(F)F)c3)cn2)n1 [Example 111, (S)-N-(4-(3-aminopiperidin-1-yl)-5-((1-(trifluoromethyl)-1H-pyrazol-4-yl)ethynyl)pyridin-2-yl)-2-(2-fluoro-6-methoxyphenyl)pyrimidin-4-amine hydrochloride] | ≥ 8.00
12 | COc1cccc(F)c1-c1nc(Nc2cc(N3CCC[C@H](O)C3)c(-c3cnn(C4CCOCC4)c3)cn2)ccc1C(N)=O [Example 112, 2-(2-fluoro-6-methoxyphenyl)-6-((4-((S)-3-hydroxypiperidin-1-yl)-5-(1-(tetrahydro-2H-pyran-4-yl)-1H-pyrazol-4-yl)pyridin-2-yl)amino)nicotinamide] | ≥ 8.00
13 | COc1cccc(F)c1-c1nc(Nc2cc(N3CCC[C@H](O)C3)c(-c3cnn(C4CCOCC4)c3)cn2)ccc1C(=O)N(C)C [Example 113, 2-(2-fluoro-6-methoxyphenyl)-6-((4-((S)-3-hydroxypiperidin-1-yl)-5-(1-(tetrahydro-2H-pyran-4-yl)-1H-pyrazol-4-yl)pyridin-2-yl)amino)-N,N-dimethylnicotinamide] | 7.30 to 8.00
14 | COc1cccc(F)c1-c1nc(Nc2cc(N3CCC[C@H](N)C3)c(C#Cc3cnn(C(F)(F)F)c3)cn2)ccc1F [Example 114, 4-((S)-3-aminopiperidin-1-yl)-N-(5-fluoro-6-(2-fluoro-6-methoxyphenyl)pyridin-2-yl)-5-((1-(trifluoromethyl)-1H-pyrazol-4-yl)ethynyl)pyridin-2-amine hydrochloride] | ≥ 8.00
15 | N[C@H]1CCCN(c2cc(Nc3ccnc(-c4cc5nccnc5cc4F)n3)ncc2C#Cc2cnn(C(F)(F)F)c2)C1 [Example 115, (S)-N-(4-(3-aminopiperidin-1-yl)-5-((1-(trifluoromethyl)-1H-pyrazol-4-yl)ethynyl)pyridin-2-yl)-2-(7-fluoroquinoxalin-6-yl)pyrimidin-4-amine hydrochloride] | ≥ 8.00
16 | COCCCn1cc(-c2cnc(Nc3ccnc(-c4c(F)cccc4OC)n3)cc2N2CCC[C@H](N)C2)cn1 [Example 116, (S)-N-(4-(3-aminopiperidin-1-yl)-5-(1-(3-methoxypropyl)-1H-pyrazol-4-yl)pyridin-2-yl)-2-(2-fluoro-6-methoxyphenyl)pyrimidin-4-amine hydrochloride] | ≥ 8.00
17 | COc1cccc(F)c1-c1nccc(Nc2cc(N3CCC4(CCN(C)C4)CC3)c(-c3cnn(C4CCOCC4)c3)cn2)n1 [Example 117, 2-(2-fluoro-6-methoxyphenyl)-N-(4-(2-methyl-2,8-diazaspiro[4.5]decan-8-yl)-5-(1-(tetrahydro-2H-pyran-4-yl)-1H-pyrazol-4-yl)pyridin-2-yl)pyrimidin-4-amine] | ≥ 8.00
18 | COc1cccc(F)c1-c1nccc(Nc2cc(N3CCC[C@H](N)C3)c(-c3ccc(N(C)C)nc3)cn2)n1 [Example 118, (S)-4-(3-aminopiperidin-1-yl)-N^6-(2-(2-fluoro-6-methoxyphenyl)pyrimidin-4-yl)-N^6′,N^6′-dimethyl-[3,3′-bipyridin]-6,6′-diamine hydrochloride] | ≥ 8.00
19 | COc1cccc(F)c1-c1nccc(Nc2cc(N3CCC[C@H](N)C3)c(-c3ccc(N4CCCC4)nc3)cn2)n1 [Example 119, (S)-4-(3-aminopiperidin-1-yl)-N-(2-(2-fluoro-6-methoxyphenyl)pyrimidin-4-yl)-6′-(pyrrolidin-1-yl)-[3,3′-bipyridin]-6-amine hydrochloride] | ≥ 8.00
20 | COc1cccc(F)c1-c1nccc(Nc2cc(N3CCC[C@H](N)C3)c(-c3ccc(N4CCCCC4)nc3)cn2)n1 [Example 120, (S)-4-(3-aminopiperidin-1-yl)-N-(2-(2-fluoro-6-methoxyphenyl)pyrimidin-4-yl)-6′-(piperidin-1-yl)-[3,3′-bipyridin]-6-amine hydrochloride] | ≥ 8.00
21 | COc1cccc(F)c1-c1nccc(Nc2cc(N3CCC[C@H](N)C3)c(-c3ccc(N4CCOCC4)nc3)cn2)n1 [Example 121, (S)-4-(3-aminopiperidin-1-yl)-N-(2-(2-fluoro-6-methoxyphenyl)pyrimidin-4-yl)-6′-morpholino-[3,3′-bipyridin]-6-amine hydrochloride] | ≥ 8.00
22 | CN[C@H]1CCCN(c2cc(Nc3ccnc(-c4c(F)cccc4OC)n3)ncc2-c2cnn(C(F)F)c2)C1 [Example 122, (S)-N-(5-(1-(difluoromethyl)-1H-pyrazol-4-yl)-4-(3-(methylamino)piperidin-1-yl)pyridin-2-yl)-2-(2-fluoro-6-methoxyphenyl)pyrimidin-4-amine hydrochloride] | ≥ 8.00
23 | CN[C@@H]1CCCN(c2cc(Nc3ccnc(-c4c(F)cccc4OC)n3)ncc2-c2cnn(C(F)F)c2)C1 [Example 123, (R)-N-(5-(1-(difluoromethyl)-1H-pyrazol-4-yl)-4-(3-(methylamino)piperidin-1-yl)pyridin-2-yl)-2-(2-fluoro-6-methoxyphenyl)pyrimidin-4-amine hydrochloride] | 7.30 to 8.00
24 | CN[C@H]1CCN(c2cc(Nc3ccnc(-c4c(F)cccc4OC)n3)ncc2-c2cnn(C3CCOCC3)c2)C1 [Example 124, (S)-2-(2-fluoro-6-methoxyphenyl)-N-(4-(3-(methylamino)pyrrolidin-1-yl)-5-(1-(tetrahydro-2H-pyran-4-yl)-1H-pyrazol-4-yl)pyridin-2-yl)pyrimidin-4-amine] | ≥ 8.00
25 | CCN[C@H]1CCN(c2cc(Nc3ccnc(-c4c(F)cccc4OC)n3)ncc2-c2cnn(C3CCOCC3)c2)C1 [Example 125, (S)-N-(4-(3-(ethylamino)pyrrolidin-1-yl)-5-(1-(tetrahydro-2H-pyran-4-yl)-1H-pyrazol-4-yl)pyridin-2-yl)-2-(2-fluoro-6-methoxyphenyl)pyrimidin-4-amine] | ≥ 8.00
